In patent US12529017B2, “Detergent composition comprising a lipase” (Novozymes A/S, priority 2020, dated 2026):

Experiment: Butyric acid release (odor) from lipase washed butter swatches by SPME-GC, Model E1 detergent
Experimental: The butyric acid release (odor) from the lipase washed swatches were measured by Solid Phase Micro Extraction Gas Chromatography (SPME-GC) using the following method.
40 mL of Model E1 detergent wash liquor was added to a 50 mL test tube. CS-10 butter swatches (CFT) were prepared from 5×5 cm swatches as round punch-outs with a 2-cm diameter. The butter swatches were prepared using methods similar to those described in Example 1. Lipase and methyl ricinoleate (Sigma-Aldrich R8750) were added to the tubes according to the table below, followed by the addition of 10 steel balls and 2 CS-10 swatches per tube. The tubes were continuously agitated at 40 rpm for 25 minutes at 20° C. The samples were then rinsed with cold water for 5 min and finally dried on filter paper for 16 hours.
The dried CS-10 swatches were transferred to Gas Chromatograph (GC) vials, which were then sealed. The samples were incubated at 30° C. for 24 hours, heated to 140° C. for 30 minutes, and stored at 20-25° C. for at least 4 hours before analysis. The analyses were performed on a Shimadzu Nexis GC-2030 equipped with a Carboxen PDMS SPME fiber (85 μm). Sampling from each GC vial was performed at 50° C. for 8 minutes with the SPME fiber in the head-space over the textile pieces as the sampled compounds were subsequently injected onto the column (injector temperature=250° C. Column flow=2 mL helium/minute. Column over temperature gradient: 0 minute=50° C., 2 minutes=50° C., 6 minutes 45 seconds=240° C.). Detection was performed using a Flame Ionization Detector (FID). Retention time for butyric acid was identified using an authentic standard. The area of each peak was measured and compared to the area of the reference peak (Lipase 2, no methyl ricinoleate). The data presents the peak sizes as the % peak size relative to the corresponding peak size from the Lipase 2 alone wash conditions. The experiment was performed twice. The Coefficient of Variation (CV) was 5%.

CCCCCC[C@@H](O)C/C=C\CCCCCCCC(=O)OC [Methyl ricinoleate, methyl ricinoleate]
Butyric acid peak size normalized to lipase alone (%) (methyl ricinoleate 1 mM, with Lipase 2, 25 minutes at 20° C.): 88% | Butyric acid peak size normalized to lipase alone (%) (methyl ricinoleate 1 mM, without Lipase 2, 25 minutes at 20° C.): 0% | Butyric acid peak size normalized to lipase alone (%) (methyl ricinoleate 5 mM, with Lipase 2, 25 minutes at 20° C.): 89% | Butyric acid peak size normalized to lipase alone (%) (methyl ricinoleate 5 mM, without Lipase 2, 25 minutes at 20° C.): 0%

B1: Lipase 2: Thermomyces lanuginosus lipase (TLL) SEQ ID NO: 1 with substitutions E1C+D27R+G38A+F51V+D96E+K981+D111A+G163K+H198S+Y220F+T231R+N233C+D254S+P256T (Novozymes A/S) (protein, listed as Thermomyces lanuginosus)
chain: CVSQDLFNQFNLFAQYSAAAYCGKNNRALAGTNITCTANACPEVEKADATVLYSFEDSGVGDVTGFLALDNTNKLIVLSFRGSRSIENWIGNLNFELIEINDICSGCRGHAGFTSSWRSVADTLRQKVEDAVREHPDYRVVFTGHSLGGALATVAGADLRGNKYDIDVFSYGAPRVGNRAFAEFLTVQTGGTLYRITSTNDIVPRLPPREFGYSHSSPEFWIKSGTLVLVRRCDIVKIEGIDATGGNNQPNIPSITAHLWYFGLIGTCL
modifications: mat_peptide (1)..(269)
Butyric acid peak size normalized to lipase alone (%) (Lipase 2 alone, no methyl ricinoleate (reference peak), 25 minutes at 20° C.): 100%
